According to article PMC8069289 (Molecules, 2021):
Several values for one entry are separate records, joined by “and”; a condition that tells them apart may be missing. Equal values may be shown once.

Tests used:
[1] = tested on: Drosophila melanogaster; assay: Antitoxicity assay, combined treatment with 0.15 M H2O2; settings: 0.15 M hydrogen peroxide alone, positive toxicant control concurrent to each test substance
Protocol: Toxicity was assayed according to our standard protocols. CRB and SFRB were tested at five concentrations: 1, 4, 8.12, 32.5 and 130 mg/mL and 0.16, 0.625, 1.25, 5 and 20 mg/mL, respectively. […] Tested groups consisted of larvae fed with Drosophila Instant Medium (Formula 4–24, Carolina Biological Supply, Burlington, NC, USA) supplemented with the assessed compounds concentrations. Emerging adults of all groups were counted and toxicity was determined as the percentage of hatched individuals in each treatment compared with the negative control.

[2] = tested on: Drosophila melanogaster; assay: Genotoxicity, wing spot test (SMART); settings: H2O2 0.15 M, positive control
Protocol: The wing spot test was performed to evaluate genotoxicity assays following the standard procedure [14]. Briefly, trans-heterozygous larvae for mwh and flr^3 genes were obtained by crossing four day-old virgin flr^3 females with mwh males in a 2:1 ratio. Four days after fertilization, females were allowed to lay eggs in fresh yeast medium (25 g yeast and 4 mL sterile distilled water) for 8 h in order to obtain synchronized larvae. After 72 h, larvae were collected, washed with distilled water, and clustered in groups of 100 individuals. […] Adult flies were collected and stored in 70% ethanol until the wings were removed and mounted on slides using Faure’s solution. Mutant spots were assessed in both dorsal and ventral surfaces of the wings in a bright light microscope at 400× magnification. The frequencies of each type of mutant clone per wing (single, large or twin spot) were compared with the concurrent negative control [43]. All inconclusive and positive results (p > 0.05) were analysed with the nonparametric U-test of Mann, Whitney and Wilcoxon (α = β = 0.05).

Q: With OO [H2O2, hydrogen peroxide, reference compound] as the molecule, how does the “Survival (%)” value [1] read?
A: The value was 60% and 38.46% and 58%.

Q: What about the “Twin Spots m = 5” value [2] of the same molecule?
A: The value was 0 clones per wing.

Q: What about the “Large Simple Spots (>2 Cells) m = 5” value ([2]; No. of spots in parentheses) of the same molecule?
A: Its value is 0.05 (2) clones per wing.

Q: And the “Small Single Spots (1–2 Cells) m = 2” value ([2]; No. of spots in parentheses)?
A: The value was 0.375 (15) clones per wing.

Q: What about the “Total Spots m = 2” value ([2]; No. of spots in parentheses) of the same molecule?
A: The value was 0.425 (17) clones per wing.
